This note sets out measurements from publication PMC6329299 (The pharmacogenomics journal, 2015).

Structures are written as SMILES. Positions count from the first letter of the chain named. Counter-ions that a name gives are not always drawn.

Data set [1] in a line: Hydrolysis by human intestine s9 fractions. In kind it is in vitro ADME. The following applies: substrate 100 μM, 3 concentrations of HIS9.
Data set [2] in a line: Hydrolysis by human kidney s9 fractions. In kind it is in vitro ADME. The following applies: substrate 100 μM, 3 concentrations of HKS9.
Data set [3] concerns the target T1, CES1 in individual human liver s9 fractions (Homo sapiens, UniProt P23141).
T1 sequence (P23141 18-567): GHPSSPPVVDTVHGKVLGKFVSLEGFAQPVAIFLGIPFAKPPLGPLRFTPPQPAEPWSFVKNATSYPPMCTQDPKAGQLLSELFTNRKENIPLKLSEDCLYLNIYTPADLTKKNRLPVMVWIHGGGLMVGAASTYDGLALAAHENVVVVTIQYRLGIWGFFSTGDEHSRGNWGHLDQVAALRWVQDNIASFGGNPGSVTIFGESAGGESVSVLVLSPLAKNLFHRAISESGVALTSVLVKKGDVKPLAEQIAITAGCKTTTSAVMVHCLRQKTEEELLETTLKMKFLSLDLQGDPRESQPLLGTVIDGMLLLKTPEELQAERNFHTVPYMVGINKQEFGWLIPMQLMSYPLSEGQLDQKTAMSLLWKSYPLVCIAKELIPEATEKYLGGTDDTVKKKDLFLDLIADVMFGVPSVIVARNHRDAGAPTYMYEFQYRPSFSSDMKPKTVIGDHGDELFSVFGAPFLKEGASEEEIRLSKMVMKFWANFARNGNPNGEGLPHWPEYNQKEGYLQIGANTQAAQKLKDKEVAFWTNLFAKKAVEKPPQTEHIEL
In kind it is in vitro ADME. The following applies: 143G/G livers; HLS9 0.5 mg/ml, enalapril 500 μM, 37 °C, 10 min.

Data set [4] concerns CES1 in individual human liver s9 fractions. Format: in vitro ADME.
In a further data set the target is T2, CES1 variant G19V (Homo sapiens, UniProt P23141, G18V).
T2 sequence (P23141 18-568 isoform P23141-2 G19V limits assumed): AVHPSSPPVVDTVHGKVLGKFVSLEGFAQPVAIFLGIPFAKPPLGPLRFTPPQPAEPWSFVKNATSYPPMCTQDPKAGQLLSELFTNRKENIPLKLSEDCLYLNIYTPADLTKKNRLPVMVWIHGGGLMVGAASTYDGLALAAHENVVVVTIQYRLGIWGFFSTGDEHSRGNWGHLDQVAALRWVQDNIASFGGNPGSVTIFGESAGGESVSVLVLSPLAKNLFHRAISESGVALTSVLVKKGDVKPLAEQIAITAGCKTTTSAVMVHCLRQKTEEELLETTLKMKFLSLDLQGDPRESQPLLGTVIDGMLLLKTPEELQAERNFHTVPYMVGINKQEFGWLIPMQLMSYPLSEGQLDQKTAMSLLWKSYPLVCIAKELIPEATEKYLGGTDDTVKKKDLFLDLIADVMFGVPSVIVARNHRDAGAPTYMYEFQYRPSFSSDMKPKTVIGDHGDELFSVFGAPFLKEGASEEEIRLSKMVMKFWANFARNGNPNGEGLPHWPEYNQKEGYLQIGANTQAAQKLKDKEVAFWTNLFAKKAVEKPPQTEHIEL
Description: Enalapril hydrolysis by CES1 variant G19V transfected cell s9. Format: in vitro ADME. As to conditions: enalapril 500 μM.

A further data set deals with T3, CES1 variant S83L (Homo sapiens, UniProt P23141, S82L).
T3 sequence (P23141 18-568 isoform P23141-2 S83L limits assumed): T2 sequence (P23141 18-568 isoform P23141-2 G19V limits assumed) with V2G, S66L
Put plainly: Enalapril hydrolysis by CES1 variant S83L transfected cell s9. Format: in vitro ADME. The following applies: enalapril 500 μM.

For the next data set, the target named is T4, CES1 variant A270S (Homo sapiens, UniProt P23141, A269S).
T4 sequence (P23141 18-568 isoform P23141-2 A270S limits assumed): T2 sequence (P23141 18-568 isoform P23141-2 G19V limits assumed) with V2G, A253S
Description: Enalapril hydrolysis by CES1 variant A270S transfected cell s9. Format: in vitro ADME. As to conditions: enalapril 500 μM.

For data set [5] the following is noted: human, pH 7.4.
Setting [6] is: human liver samples, enalapril 500 μM.

As to `CCOC(=O)[C@H](CCc1ccccc1)N[C@@H](C)C(=O)N1CCC[C@H]1C(=O)O` [Enalapril, Enalapril maleate], the “Hydrolysis by human intestine s9 fractions” value in data set [1] is reported as “No appreciable activation”. For the same molecule, the “Hydrolysis by human kidney s9 fractions” value in [2] is reported as “No appreciable activation”. The molecule further showed an enalapril activation rate in data set [3] of 55.4±37.3 pmole/min/mg protein. In addition, in data set [4] (CES1 expression comparable to pooled HLS9), the “CES1 activity in the null-CES1 liver samples (some G143E non-carriers)” value is recorded as “null CES1 activity”. Also, the “CES1 activity on enalapril activation, 143G/E livers as fraction of 143G/G” value in data set [4] (human liver samples) is “approximately 1/3”. Besides, in data set [4] (setting [6]), the “CES1 activity on enalapril activation between CES1P1/CES1P1, CES1P1/CES1P1VAR and CES1P1VAR/CES1P1VAR genotypes” value is listed as “no significant differences”; the “CES1 activity on enalapril hydrolysis among CES1/CES1, CES1/CES1VAR and CES1VAR/CES1VAR genotypes” value is reported as “comparable”. In addition, the “CES1 activity on enalapril activation within the nine CES1/CES1P1 diplotypes” value in data set [4] (one way ANOVA, activity P=0.549) is on record as “no significant differences”. The “Catalytic activity of G19V on enalapril activation vs WT CES1” value on CES1 variant G19V is given as “comparable to the WT CES1”. Also, at CES1 variant S83L, the “Catalytic activity of S83L on enalapril activation vs WT CES1” value was “comparable to the WT CES1”. The “Catalytic activity of A270S on enalapril activation vs WT CES1” value on CES1 variant A270S is reported as “comparable to the WT CES1”. The “Clint (Vmax/Km)” value in [5] came to 1.1 μl/min/mg protein. Also, the Vmax in the data set “Hydrolysis” (HLS9, PBS pH 7.4, 37 °C, unit for enalapril) was 67.5 ± 1.3 pmole/min/mg protein. Moreover, the Km in “Hydrolysis” (human, pooled human liver s9 fractions (HLS9), pH 7.4) amounted to 60.1 ± 4.2 µM. In the data set “Hydrolysis” (prodrug 100 μM, 3 concentrations of HLS9), the “Hydrolysis to active metabolite by human liver s9 fractions” value is “efficiently hydrolyzed”.

In general, Km refers to the substrate concentration at which the rate is half of its maximum.
